Data set [1] can be described thus: Blood-brain barrier penetration potential using MDR1-MDCK cell monolayers. Format: in vitro ADME. The conditions noted are these: dog. From the text:
This assay is used to determine the blood-brain barrier (BBB) penetration potential of a test compound using MDR1-MDCK cell monolayers. Further details on this method may be found in Taub M E, et al., Functional assessment of multiple Pglycoprotein (P-gp) probe substrates: Influence of cell line and modulator concentration on P-gp activity. Drug Metab Dispos. 2005 November; 33(11): 1679-87 and Wang Q, et al., Evaluation of the MDR-MDCK cell line as a permeability screen for the blood-brain barrier. Int J. Pharm. 2005 Jan. 20; 288(2):349-59; each of which is hereby incorporated by reference. Test compound was formulated in 300 μL of DMSO at 10 mM and diluted to 5 μM in HBSSg with maximum DMSO concentration not greater than 1%. Confluent monolayers of MDR1-MDCK cells, 7 to 11 days old, were used. A receiver well, having apical and basolateral sides at pH 7.4, was used with 1% BSA in modified Hanks buffer (HBSSg). Two monolayers were dosed with test compound in each direction (N=2). Apical side dosing was used for A-B assessment and basolateral side was used for B-A assessment; taken together, this information provides a bidirectional permeability potential. Apical and basolateral sides were sampled at 120 minutes and concentrations of test compound were determined using an LC-MS/MS method with a minimum 4 point calibration curve. Apparent permeability (Papp) in both directions (A-B and B-A) was calculated, as was the efflux ratio (Papp B-A)/(Papp A-B).

For data set [2], the system named is 5xFAD mouse. Briefly: In vivo efficacy trial in the 5xFAD transgenic AD mouse model. The conditions noted are these: wildtype littermate mice. From the text:
The 5xFAD mouse (B6SJL-Tg(SwFLon,PSEN1*M 146L*L286V)6799Vas/J; JAX #006554) overexpresses human APP(695) with the Swedish (K670N,M671L), Florida (I716V) and London (V717I) familial AD (FAD) mutations, as well as human presenilin 1 (PSI) with two FAD mutations (M 146L and L286V). These five mutations act additively, leading to large and rapid age-related increases in neuronal Aβ-40 and Aβ-42 peptides beginning at 2 months of age. […] Extra-cellular Aβ plaques are first observed in the hippocampus, subiculum, frontal cortex and spinal cord at 2-3 months of age and increase with age. No neurofibrillary tangles (tau) are observed in the brains of 5xFAD mice. […] Active astrocytes are commonly found surrounding β-amyloid plaques and levels of the pre-synaptic marker synaptophysin are decreased, indicating a decrease in synaptic connectivity to the 5xFAD mouse (Oakley et al., 2006). […] Age-related cognitive impairment in visuo-spatial working memory in the Y-maze occurs at 4-5 months of age. […]
The general procedure for an in vivo efficacy trial with 5xFAD mice is as follows. […] After behavioral testing, mice are sacrificed and their blood and brains assessed for Aβ levels.

Data set [3] has as its target T1, Aβ40 (Homo sapiens, UniProt P05067).
T1 construct: pre-treated Aβ40 (40 μM in 20 mM Tris, pH 7.4)
The data set is described as follows: Thioflavin T (ThT) Aβ aggregation assay. The data set is classed as biochemical. The conditions noted are these: 20 μM Aβ40, 37 degrees C. The method, boiled down: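 Aβ40 was HFIP-pretreated to remove preformed aggregates; 20 µM Aβ40 incubated with compound and 4 µM ThT in 20 mM Tris pH 7.4, 150 mM NaCl, 1% DMSO at 37 °C. Fluorescence (ex 450/em 480 nm) read every 15 min after shaking; inhibition judged by attenuated fluorescence rise versus DMSO controls.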

Data set [4] deals with alpha-synuclein (Homo sapiens, UniProt P37840). The data set is described as follows: alpha-synuclein aggregation assay (ThT, analogous to Example 1). The conditions noted are these: 10 μM compound. The data set is classed as biochemical. Here is the method: Analogous to the method of Example 1, the ability of compounds to inhibit the aggregation of alpha-synuclein was performed by substituting Aβ with alpha-synuclein.

Each structure is given as a SMILES string.

T1 sequence (P05067 672-711 limits assumed): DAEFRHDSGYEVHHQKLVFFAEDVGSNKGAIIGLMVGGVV

As for `O=[N+]([O-])c1ccc(-c2cccc(C(O)C(F)(F)F)c2)cc1NCc1ccccc1` (stereo not drawn) [TRV 1140, 1-(3′-(benzylamino)-4′-nitro-[1,1′-biphenyl]-3-yl)-2,2,2-trifluoroethanol], in data set [1] (MDCK-MDR1, apical dosing, pH 7.4, read-out: Papp A-B × 10^−6 cm/s), the Papp A→B at 120 min, 5 µM amounted to 15.3 ×10⁻⁶ cm/s. The Papp B→A at 120 min, 5 µM in data set [1] (MDCK-MDR1, basolateral dosing, pH 7.4, read-out: Papp B-A × 10^−6 cm/s) is 12.4 ×10⁻⁶ cm/s. Besides, in data set [1] (MDCK-MDR1, pH 7.4, read-out: Efflux ratio (Papp B-A)/(Papp A-B)), the efflux ratio at 120 min, 5 µM amounted to 0.8. The “behavioural performance, WT with compound versus WT with vehicle” value in data set [2] is “no difference in behavioural performance”. In data set [3], the 50% inhibitory concentration (IC50) was determined as 3.09 ± 0.21 µM. In data set [4], the “inhibition of alpha-synuclein aggregation” value was “inhibit alpha-synuclein aggregation at 10 μM”.

The values are drawn from patent US20140187556A1, “ANTI-AMYLOID COMPOUNDS AND METHODS” (Treventis Corporation, priority 2011, published 2014).
